In US10668079B2, “Composition composed of ceftriaxone sodium and sulbactum sodium” (XIANGBEI WELMAN PHARMACEUTICAL CO., LTD., priority 2016, dated 2020):
Where a name gives a salt, the structure may show the parent alone.

Tests used:
Experiment in all cases: In vivo antibacterial test (animal protection test, septicemia mouse model)
[1] = tested on: ATCC43069 (Neisseria gonorrhoeae); details: ATCC43069, sc, ICR mice
Protocol: (§1) The stability test samples in test example 1 were sampled at 0th month and subjected to in vivo antibacterial test; and the stability test samples were sampled at 30th month again, and subjected to in vivo antibacterial test. The in vivo antibacterial tests were performed according to the following method.
(§2) Test Samples: Compositions I to VIII, Sterile Powder for Injection I, Sterile Powder for Injection II, Sterile Powder for Injection IV, Lyophilized Powder for Injection I, Lyophilized Powder for Injection II, Lyophilized Powder for Injection A, Sterile Powder for Injection A and Sterile Powder for Injection B, all of which were obtained from the test example 1 at 0th and 30th month; and control drugs: ceftriaxone sodium, levofloxacin hydrochloride, azithromycin, doxycycline hydrochloride and spectinomycin hydrochloride, wherein, a batch of the control drugs were purchased at 0th month of the stability test so as to match with the test samples at 0th month, and another batch of control drugs were purchased at 30th month of the stability test so as to match with the test samples at 30th month, and the time when the two batches were purchased was within one month from the date of their production.
(§3) Animals: ICR mice weighed 18-22 g, half male and half female.
(§4) Strains: ATCC700603 (Klebsiella pneumoniae), ATCC43069 (Neisseria gonorrhoeae), Q-R (quinolone-resistant Neisseria gonorrhoeae), T-R (tetracycline-resistant Neisseria gonorrhoeae), PP-R (β-lactam-resistant Neisseria gonorrhoeae), MAC-R (macrolide-resistant Neisseria gonorrhoeae), SPE-R (spectinomycin-resistant Neisseria gonorrhoeae) and QS-R (ceftriaxone-resistant Neisseria gonorrhoeae), wherein, ATCC700603, and ATCC43069 were purchased from ATCC; QS-R was prepared by in vitro inducing Neisseria gonorrhoeae, which was sensitive to ceftriaxone, with a subinhibitory concentration of ceftriaxone, culturing at 36° C., 5% CO2, passaging once every 24 hours, and then transferring to a higher concentration of ceftriaxone on GC medium until the strain was resistant to ceftriaxone; and other strains were clinical isolates.
(§5) Aseptic thoracotomy was performed timely on the mice died of infection, the heart blood or intracavity effusion was taken and evenly coated on corresponding agar plates, and incubated for 18 hours at 37° C. […] The obtained strain was used to infect mice again.
(§6) After infection, the number of dead mice was recorded. The minimum dose causing 100% death of mice was 1 MLD, and was used as the dose in animal protection experiments. The bacterial concentration, which was one log lower than 1 MLD and infected the animals without mortality, was named 0.1 MLD. In experiments, a bacteria concentration of 1 MLD was used as the positive control for the infection experiments; and a bacteria concentration of 0.1 MLD was used as the negative control for the infection. In both positive and negative control groups, only the bacteria were administrated and no antibiotic treatment was provided. The mortality of the positive group should be 70% or more, and the mortality of the negative group should be 30% or less.
(§7) When the administration dosage was investigated first, there may be relatively great differences between the dose concentrations of the groups. When the range of the administration dosage was determined, it may be further investigated by reducing the differences until the suitable administration dosage (that is, for the group administrated with the highest concentration, 70% or more infected animals survived; and for the group administrated with the lowest concentration, no less than 70% of infected animals died) was found.

[2] = tested on: MAC-R (macrolide-resistant Neisseria gonorrhoeae); details: sc, strain MAC-R, ICR mice
Protocol: as §1, §2, §3, §4, §5, §6, §7

[3] = tested on: PP-R (β-lactam-resistant Neisseria gonorrhoeae); details: sc, strain PP-R, ICR mice
Protocol: as §1, §2, §3, §4, §5, §6, §7

[4] = tested on: Q-R (quinolone-resistant Neisseria gonorrhoeae); details: sc, strain Q-R, ICR mice
Protocol: as §1, §2, §3, §4, §5, §6, §7

[5] = tested on: QS-R (ceftriaxone-resistant Neisseria gonorrhoeae); details: sc, strain QS-R, ICR mice
Protocol: as §1, §2, §3, §4, §5, §6, §7

[6] = tested on: SPE-R (spectinomycin-resistant Neisseria gonorrhoeae); details: sc, strain SPE-R, ICR mice
Protocol: as §1, §2, §3, §4, §5, §6, §7

[7] = tested on: T-R (tetracycline-resistant Neisseria gonorrhoeae); details: sc, strain T-R, ICR mice
Protocol: as §1, §2, §3, §4, §5, §6, §7

[8] = tested on: ATCC700603 (Klebsiella pneumoniae); details: ATCC700603, sc, ICR mice
Protocol: as §1, §2, §3, §4, §5, §6, §7

[9] = strain ATCC 43069, samples at 0th month of the stability test, subcutaneous immediately and after 6 hours, 7 days observation
[10] = strain ATCC 43069, samples at 30th month of the stability test (control drugs: batch purchased at 30th month), subcutaneous
[11] = samples at 0th month of the stability test, subcutaneous immediately and after 6 hours, 7 days observation
[12] = samples at 30th month of the stability test (control drugs: batch purchased at 30th month), subcutaneous

Row | SMILES | ED50 [1, 9] [mg/kg] | ED50 [1, 10] [mg/kg] | ED50 [2, 11] [mg/kg] | ED50 [2, 12] [mg/kg] | ED50 [3, 11] [mg/kg] | ED50 [3, 12] [mg/kg] | ED50 [4, 11] [mg/kg] | ED50 [4, 12] [mg/kg] | ED50 [5, 11] [mg/kg] | ED50 [5, 12] [mg/kg] | ED50 [6, 11] [mg/kg] | ED50 [6, 12] [mg/kg] | ED50 [7, 11] [mg/kg] | ED50 [7, 12] [mg/kg] | ED50 ([8]; strain ATCC 700603, samples at 0th month of the stability test, subcutaneous immediately and after 6 hours, 7 days observation) [mg/kg] | ED50 ([8]; strain ATCC 700603, samples at 30th month of the stability test (control drugs: batch purchased at 30th month), subcutaneous) [mg/kg]
1 | C[C@H]1c2cccc(O)c2C(=O)C2=C(O)[C@]3(O)C(=O)C(C(N)=O)=C(O)[C@@H](N(C)C)[C@@H]3[C@@H](O)[C@@H]21 [Doxycycline Hydrochloride, doxycycline hydrochloride] | 37 | 32 | 58 | 62 | 52 | 47 | 55 | 51 | 105 | 99 | 52 | 51 | 456 | 432 |  | 
2 | CC[C@H]1OC(=O)[C@H](C)[C@@H](O[C@H]2C[C@@](C)(OC)[C@@H](O)[C@H](C)O2)[C@H](C)[C@@H](O[C@@H]2O[C@H](C)C[C@H](N(C)C)[C@H]2O)[C@](C)(O)C[C@@H](C)CN(C)[C@H](C)[C@@H](O)[C@]1(C)O [Azithromycin, azithromycin] | 24 | 31 | 487 | 497 | 49 | 55 | 43 | 40 | 63 | 69 | 59 | 65 | 62 | 59 |  | 
3 | CO/N=C(\C(=O)N[C@@H]1C(=O)N2C(C(=O)O)=C(CSc3nc(=O)c(=O)[nH]n3C)CS[C@H]12)c1csc(N)n1 [Ceftriaxone Sodium, ceftriaxone sodium] | 16 | 21 | 34 | 37 | 208 | 224 | 31 | 30 | 337 | 373 | 52 | 66 | 46 | 57 | 35 | 37
4 | C[C@H]1COc2c(N3CCN(C)CC3)c(F)cc3c(=O)c(C(=O)O)cn1c23 [Levofloxacin Hydrochloride, levofloxacin hydrochloride] | 25 | 30 | 36 | 41 | 37 | 42 | 573 | 564 | 72 | 82 | 67 | 72 | 48 | 43 |  | 
5 | CN[C@@H]1[C@H](O)[C@H](NC)[C@H]2O[C@@]3(O)C(=O)C[C@@H](C)O[C@H]3O[C@@H]2[C@H]1O [Spectinomycin Hydrochloride, spectinomycin hydrochloride] | 19 | 22 | 38 | 42 | 56 | 67 | 40 | 42 | 41 | 56 | 621 | 571 | 61 | 68 |  | 
